In patent US11382985B2, “Anti-tumour immune responses to modified self-epitopes” (Scancell Limited, priority 2015, dated 2022):
Square brackets hold non-standard residues; d marks the D form. Ends that are not written are not given here. Cit = NC(=O)NCCC[C@H](N)C(=O)O

Legend:
splenocytes [1] = assay: Screening of citrullinated Enolase peptide pools, ex vivo IFNγ Elispot, DR4 mice; format: in vivo, transgenic DR4 mouse; details: single immunisation with pool of 4-6 human citrullinated peptides, 20 μg each, CpG/MPLA, day 14, label = peptide used for restimulation
Procedure: C57BL/6 mice (Charles River, UK), HLA-DR4 mice (Taconic, USA), HHDII/DR1 mice (Pasteur institute, France) and the HHD/HLA-DP4 transgenic strain of mouse as described in patent WO2013/017545 A1 (EMMA repository, France) were used, aged between 8 and 12 weeks, and cared for by the staff at Nottingham Trent University. All work was carried out under a Home Office project licence. Peptides were dissolved in PBS to 1 mg/ml and then emulsified (a series of dilutions) with different adjuvants: CpG and MPLA 6 μg/mouse of each (Invivogen, UK), Incomplete Freund's 50 μl/mouse (Sigma, UK), poly I:C 10 μg/mouse (Invivogen, UK), Imiquimod 25 μg/mouse (Invivogen, UK) and GMCSF 10 μg/mouse (Peprotech, UK). […]
Elispot assays were performed using murine IFNγ, IL-17 and IL-10 capture and detection reagents according to the manufacturer's instructions (Mabtech, Sweden). […] After incubation, captured IFN and IL-10 were detected by biotinylated anti-IFNγ and IL-10 antibodies and developed with a streptavidin alkaline phosphatase and chromogenic substrate. Spots were analysed and counted using an automated plate reader (Cellular Technologies Ltd).
Screening was performed to identify potential citrullinated Enolase epitopes in mice. […] After 14 days the mice were culled and the immune responses to each peptide within the immunising pool were assessed by ex vivo Elispot (FIG. 2). […]

B16iDR4 = assay: B16 tumour with IFNγ inducible DR4 (B16iDR4) challenge; format: in vivo, DR4 mice
Procedure: (§1) C57BL/6 mice (Charles River, UK), HLA-DR4 mice (Taconic, USA), HHDII/DR1 mice (Pasteur institute, France) and the HHD/HLA-DP4 transgenic strain of mouse as described in patent WO2013/017545 A1 (EMMA repository, France) were used, aged between 8 and 12 weeks, and cared for by the staff at Nottingham Trent University. All work was carried out under a Home Office project licence. Peptides were dissolved in PBS to 1 mg/ml and then emulsified (a series of dilutions) with different adjuvants: CpG and MPLA 6 μg/mouse of each (Invivogen, UK), Incomplete Freund's 50 μl/mouse (Sigma, UK), poly I:C 10 μg/mouse (Invivogen, UK), Imiquimod 25 μg/mouse (Invivogen, UK) and GMCSF 10 μg/mouse (Peprotech, UK). Peptides (25 μg/mouse) were injected subcutaneously at the base of the tail. DNA (1 μg/mouse) was coated onto 1.0 μm gold particles (BioRad, Hemel Hempstead, UK) using the manufacturer's instructions and administered intradermally by genegun (BioRad). Homspera (10 nM/mouse) (PeptideSynthetics, UK) was injected intradermally with genegun immunisation. Mice were immunized at either day 0 for peptide immunisation or days, 0 and 7 for genegun immunisation, unless otherwise stated. Spleens were removed for analysis at day 14 for peptide and day 20 for peptide or genegun immunisation unless stated otherwise.
For tumour challenge experiments mice were challenged with 2.5×10^4 B16 DR4 cells or 1×10^6 LLC2/LLC2 DR4 cells, 2.5×10^5 Pan02 DR4 cells in matrigel or […] above. Tumour growth was monitored at 3-4 days intervals and mice were humanely euthanized once tumour reached ≥10 mm in diameter.

PBMCs [2] = assay: CFSE proliferation assay on PBMCs; format: cell-based, human; details: Donor 4, day 10
Procedure: PBMC were isolated from freshly drawn heparinised blood by Ficol-Hypaque (Sigma) gradient centrifugation. PBMC (1.5×10^6 cells/well) were stimulated with single peptides (final concentration 10 μg/ml) in RPMI containing 5% pooled autologous human serum, 2 mM glutamine, 20 mM HEPES and Penicillin-streptomycin (1%) in a final volume of 2 ml. As a negative control PBMC were incubated with medium alone. The PBMC were cultured at 37° C. in an atmosphere of 5% CO2 for 7 and 10 days. To assess proliferation at these times points cells were sampled and stained with surface marker CD4 and CD8 antibodies labelled with PE-Cy5 and efluor 450 respectively. After staining cells were fixed and analysed on a Milteny MACSQuant flow cytometer.

PBMCs [3] = assay: Intracellular cytokine staining of PBMCs; format: cell-based, human; details: donor 4, cultured 13 days in Enolase 241cit, restimulated; label = restimulating peptide
Procedure: PBMC cultures were set up as detailed above. On day 14 PBMCs were washed and cultured with synthetic peptide (10 μg/ml) in the presence of brefeldin A for 20 hrs at 37° C. Cells were stained with cell surface markers CD4 and CD8 using PE-Cy5 and efluor450 labelled antibodies respectively. Cells were subsequently fixed and permeabilised and stained with IFNγ PE-Cy7 labelled antibody. After staining cells were fixed and analysed on Miltenyi MACSQuant flow cytometer.

LLCDR4 tumour = assay: Lewis lung carcinoma LLC2 with constitutive DR4 (LLCDR4) challenge; format: in vivo, DR4 mice; details: challenge four days before peptide immunisation; all controls died by day 48
Procedure: as §1, with “Mice were immunized at either day 0 for peptide immunisation or days, 0 and 7 for genegun immunisation, unless otherwise stated. Spleens were removed for analysis at day 14 for peptide and day 20 for peptide or genegun immunisation unless stated otherwise.” left out
(§2) For tumour challenge experiments mice were challenged with 2.5×10^4 B16 DR4 cells or 1×10^6 LLC2/LLC2 DR4 cells, […] above. Tumour growth was monitored at 3-4 days intervals and mice were humanely euthanized once tumour reached ≥10 mm in diameter.

parental LLC2 tumour = assay: Parental Lewis lung carcinoma LLC2 challenge; format: in vivo, DR4 mice; details: challenge four days before peptide immunisation
Procedure: as §1, with “Mice were immunized at either day 0 for peptide immunisation or days, 0 and 7 for genegun immunisation, unless otherwise stated. Spleens were removed for analysis at day 14 for peptide and day 20 for peptide or genegun immunisation unless stated otherwise.” left out
as §2

B16DP4 tumour = assay: B16DP4 melanoma tumour challenge; format: in vivo, DP4 transgenic mice; details: peptide immunisation after B16DP4 implant; unimmunized 10%
Procedure: as §1, with “Homspera (10 nM/mouse) (PeptideSynthetics, UK) was injected intradermally with genegun immunisation. Mice were immunized at either day 0 for peptide immunisation or days, 0 and 7 for genegun immunisation, unless otherwise stated. Spleens were removed for analysis at day 14 for peptide and day 20 for peptide or genegun immunisation unless stated otherwise.” left out
(§3) For tumour challenge experiments mice were challenged with 2.5×10^4 B16 DR4 cells or 1×10^6 LLC2/LLC2 DR4 cells, 2.5×10^5 Pan02 DR4 cells in matrigel or 4×10^5 B16 HHDII DP4 cells subcutaneously on the right flank 3 days prior to primary immunisation and then were immunised as above. Tumour growth was monitored at 3-4 days intervals and mice were humanely euthanized once tumour reached ≥10 mm in diameter.

B16DR4 tumour = assay: B16DR4 melanoma tumour challenge; format: in vivo, DR4 mice
Procedure: as §1, §3

splenocytes [4] = assay: Peptide immunisation and ex vivo Elispot, DP4 mice; format: in vivo, HHD/HLA-DP4 transgenic mouse; details: DP4 mice immunised with human 241-260cit

VIGMDVAASEFF-CIT-SGKYDLD (VIGMDVAASEFF[Cit]SGKYDLD; listed as Homo sapiens) [Enolase 241cit]
IFNγ response to peptide compared to media (splenocytes [1]): significant response | survival at day 42 (B16iDR4; challenge 4 days prior to peptide immunisation, control 0%): 90% | tumour volume, median, day 17 post tumour implant (B16iDR4; challenge 4 days prior to peptide immunisation, control median 65 mm^3): 0 mm^3 | survival 39 days after rechallenge (B16iDR4; immunised survivors rechallenged with B16iDR4 at day 42, all controls dead by day 29): 67% | lymphocytes that are CFSE^lowCD4^+ (PBMCs [2]): 15% | IFNγ positive CD4 cells (PBMCs [3]): 0.44% | mice surviving to day 58 (LLCDR4 tumour): 40% | survival time versus unimmunised control (parental LLC2 tumour): small but significant increase in survival time | survival rate after 60 days (B16DP4 tumour): 70% | animals surviving at day 45 (B16DR4 tumour; B16DR4 challenge, three doses of 5 μg in GM-CSF over three weeks, control 0% by day 28): 70% | tumour volume, median, day 17 post tumour implant (B16DR4 tumour; peptide immunisation after B16DR4 implant, control median 49 mm^3): 0 mm^3 | survival after 45 days (B16DR4 tumour; peptide immunisation after B16DR4 implant, unimmunised 15%): 50% | granzyme B release in response to the cit peptide (splenocytes [4]): show granzyme B release
